Patent US10730882B2, “2-aminoquinazoline derivatives as P70S6 kinase inhibitors” (SENTINEL ONCOLOGY LIMITED, priority 2015, dated 2020)
Read-outs that look alike come from different tables or passages of the source.

Tests used:
[1] = biological target: p70S6K (h) (Homo sapiens (Human), UniProt P23443); assay: p70S6K (h) kinase assay (radiometric, [γ-33P-ATP]); type: biochemical; details: read-out: (a) p70S6K1 IC50
Procedure: (a) Determination of p70S6 Inhibitory Activity
The ability of compounds of the invention to inhibit P70S6 kinase may be determined using the protocol below.
20 mM MOPS, 1 mM EDTA, 0.01% Brij-35, 5% Glycerol, 0.1% b-mercaptoethanol, 1 mg/mL BSA
In a final reaction volume of 25 μL, p70S6K (h) (5-10 mU) is incubated with 8 mM MOPS pH 7.0, 0.2 mM EDTA, 100 μM KKRNRTLTV, 10 mM Mg acetate and [γ-33P-ATP](specific activity approx. 500 cpm/pmol, concentration as required). The reaction is initiated by the addition of the MgATP mix. After incubation for 40 minutes at room temperature, the reaction is stopped by the addition of 5 μL of a 3% phosphoric acid solution. 10 μL of the reaction mixture is then spotted onto a P30 filtermat and washed three times for 5 minutes in 75 mM phosphoric acid and once in methanol prior to drying and scintillation counting.

[2] = in vivo cassette mouse model: brain and plasma concentrations following oral dosing; details: male CD-1 mice, 2.5 mg/kg per compound; for Kp at 3 h: brain and plasma, read-out: (b) Brain:Plasma ratio at 3 hours
Procedure: (b) Evaluation of Brain and Plasma Concentrations in an In Vivo Cassette Mouse Model
The compounds of this invention were evaluated in an in vivo cassette mouse model to determine brain and plasma concentrations following oral dosing. This is an industry-standard and recognised means to assess brain penetration of small molecules (for recent literature article, refer to: in vitro permeability analysis, pharmacokinetic and brain distribution study in mice of imperatorin, isoimperatorin and cnidilin in Radix Angelicae Dahuricae, Fitoterapia, Volume 85, March 2013, Pages 144-153). It is also recognised that higher brain concentrations (and higher ratios of brain:plasma concentration) lead to greater exposure in the brain—this is clearly advantageous if the brain is the site of action.
For a single cassette study, male CD-1 mice were used (n=3 per timepoint, three timepoints: 1.0 hr, 3.0 hr and 8.0 hr).
5 compounds were dosed PO per cassette (dose level 2.5 mg/kg per compound, dose conc. 0.25 mg/ml, dose volume 10.0 ml/kg).
Formulation used to solubilize compounds: 10% DMSO/90% hydroxypropyl-β-cyclodextrin (20% w/v aqueous)
Sampling was terminal and plasma and brain matrices were generated. To prepare plasma samples, protein was precipitated using acetonitrile. To prepare brain samples, homogenisation and protein precipitation was performed with acetonitrile. Samples were analysed using HPLC-TOF MS using electrospray ionisation.
The brain and plasma concentrations and brain-plasma ratios observed for the compounds tested are set out in the table below.

[3] = brain, read-out: (b) Brain conc. at 3 hours
[4] = plasma, read-out: (b) Plasma conc. at 3 hours

p70S6K (h), sequence (P23443 whole entry): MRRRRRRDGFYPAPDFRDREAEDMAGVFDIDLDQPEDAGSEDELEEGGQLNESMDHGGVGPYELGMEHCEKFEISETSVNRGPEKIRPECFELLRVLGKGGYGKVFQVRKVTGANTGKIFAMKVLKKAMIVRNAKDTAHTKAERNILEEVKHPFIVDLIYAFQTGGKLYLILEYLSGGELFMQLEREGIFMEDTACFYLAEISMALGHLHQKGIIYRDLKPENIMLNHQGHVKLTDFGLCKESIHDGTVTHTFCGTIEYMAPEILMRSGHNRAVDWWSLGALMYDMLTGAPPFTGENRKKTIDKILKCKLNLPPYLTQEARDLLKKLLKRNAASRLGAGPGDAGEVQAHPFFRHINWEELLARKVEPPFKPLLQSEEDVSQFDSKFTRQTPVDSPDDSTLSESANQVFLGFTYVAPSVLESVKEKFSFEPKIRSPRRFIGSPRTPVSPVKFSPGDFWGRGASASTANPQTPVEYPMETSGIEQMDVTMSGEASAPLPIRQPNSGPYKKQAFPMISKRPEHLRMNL

IC50 [1] [nM]	Structure (SMILES)	further results
49	Fc1ccc(CNc2ncc3cc(-c4ncnc5[nH]ncc45)ccc3n2)cc1F [Example 25, (3,4-Difluoro-benzyl)-[6-(1H-pyrazolo[3,4-d]pyrimidin-4-yl)-quinazolin-2-yl]-amine]	–
67	CS(=O)(=O)Nc1cccc(CNc2ncc3cc(-c4ncnc5[nH]ncc45)ccc3n2)c1 [Example 26, N-(3-{[6-(1H-Pyrazolo[3,4-d]pyrimidin-4-yl)-quinazolin-2-ylamino]-methyl}-phenyl)-methanesulfonamide]	–
41	COc1cccc([C@@H](C)Nc2ncc3cc(-c4ncnc5[nH]ncc45)ccc3n2)c1 [Example 27, [(R)-1-(3-Methoxy-phenyl)-ethyl]-[6-(1H-pyrazolo[3,4-d]pyrimidin-4-yl)-quinazolin-2-yl]-amine]	–
> 3000	C[C@H](Nc1ncc2cc(-c3ncnc4[nH]ncc34)ccc2n1)c1ccccc1 [Example 29, ((S)-1-Phenyl-ethyl)-[6-(1H-pyrazolo[3,4-d]pyrimidin-4-yl)-quinazolin-2-yl]-amine]	–
23	C[C@@H](Nc1ncc2cc(-c3ncnc4[nH]ncc34)ccc2n1)c1cccc(NS(C)(=O)=O)c1 [Example 30, N-(3-{(R)-1-[6-(1H-Pyrazolo[3,4-d]pyrimidin-4-yl)-quinazolin-2-ylamino]-ethyl}-phenyl)-methanesulfonamide]	–
10	OCC[C@@H](Nc1ncc2cc(-c3ncnc4[nH]ncc34)ccc2n1)c1ccccc1 [Example 31, (R)-3-Phenyl-3-[6-(1H-pyrazolo[3,4-d]pyrimidin-4-yl)-quinazolin-2-ylamino]-propan-1-ol]	–
28	C[C@@H](Nc1ncc2cc(-c3ncnc4[nH]ncc34)ccc2n1)c1c(F)cccc1F [Example 33, [(R)-1-(2,6-Difluoro-phenyl)-ethyl]-[6-(1H-pyrazolo[3,4-d]pyrimidin-4-yl)-quinazolin-2-yl]-amine]	–
346	C[C@@H](Nc1ncc2cc(-c3ncnc4[nH]cc(C#N)c34)ccc2n1)c1ccccc1 [Example 34, 4-[2-((R)-1-Phenyl-ethylamino)-quinazolin-6-yl]-7H-pyrrolo[2,3-d]pyrimidine-5-carbonitrile]	–
20	C[C@@H](Nc1ncc2cc(-c3ncnc4[nH]ncc34)ccc2n1)c1ccccc1O [Example 35, 2-{(R)-1-[6-(1H-Pyrazolo[3,4-d]pyrimidin-4-yl)-quinazolin-2-ylamino]-ethyl}-phenol]	–

Continued, compound first:

Structure (SMILES)	IC50 [1] [nM]	further results
C[C@@H](Nc1ncc2cc(-c3ncnc4[nH]ncc34)ccc2n1)c1cccc(Cl)c1 [Example 2, ((R)-1-(3-Chloro-phenyl)-ethyl)-[6-(1H-pyrazolo[3,4-d]pyrimidin-4-yl)-quinazolin-2-yl]-amine]	30	–
C[C@@H](Nc1ncc2cc(-c3ncnc4[nH]ncc34)ccc2n1)c1cccc(F)c1 [Example 3, ((R)-1-(3-Fluoro-phenyl)-ethyl)-[6-(1H-pyrazolo[3,4-d]pyrimidin-4-yl)-quinazolin-2-yl]-amine]	21	Kp at 3 h [2]: 3.7; concentration at 3 h [2, 3]: 1680 nM; concentration at 3 h [2, 4]: 460 nM
C[C@@H](Nc1ncc2cc(-c3ncnc4[nH]ncc34)ccc2n1)c1ccc(F)cc1 [Example 4, ((R)-1-(4-Fluoro-phenyl)-ethyl)-[6-(1H-pyrazolo[3,4-d]pyrimidin-4-yl)-quinazolin-2-yl]-amine]	22	Kp at 3 h [2]: 2.2; concentration at 3 h [2, 3]: 1510 nM; concentration at 3 h [2, 4]: 680 nM
OC[C@@H](Nc1ncc2cc(-c3ncnc4[nH]ncc34)ccc2n1)c1ccccc1 [Example 5, ((S)-2-Hydroxy-1-phenyl-ethyl)-[6-(1H-pyrazolo[3,4-d]pyrimidin-4-yl)-quinazolin-2-yl]-amine]	24	–
CN(Cc1ccc(F)cc1)c1ncc2cc(-c3ncnc4[nH]ncc34)ccc2n1 [Example 6, (4-Fluorobenzyl)-[6-(1H-pyrazolo[3,4-d]pyrimidin-4-yl)-quinazolin-2-yl]-methylamine]	147	–
CN(Cc1ccccc1)c1ncc2cc(-c3ncnc4[nH]ncc34)ccc2n1 [Example 7, Benzyl-[6-(1H-pyrazolo[3,4-d]pyrimidin-4-yl)-quinazolin-2-yl]-methylamine]	33	–
C[C@H](c1ccccc1)N(C)c1ncc2cc(-c3ncnc4[nH]ncc34)ccc2n1 [Example 8, ((R)-1-Phenyl-ethyl)-[6-(1H-pyrazolo[3,4-d]pyrimidin-4-yl)-quinazolin-2-yl]-methylamine]	108	–
Fc1ccc(CNc2ncc3cc(-c4ncnc5[nH]ncc45)ccc3n2)cc1 [Example 9, (4-Fluorobenzyl)-[6-(1H-pyrazolo[3,4-d]pyrimidin-4-yl)-quinazolin-2-yl]-amine]	55	–
Fc1cccc(CNc2ncc3cc(-c4ncnc5[nH]ncc45)ccc3n2)c1 [Example 10, (3-Fluorobenzyl)-[6-(1H-pyrazolo[3,4-d]pyrimidin-4-yl)-quinazolin-2-yl]-amine]	18	Kp at 3 h [2]: 1.7; concentration at 3 h [2, 3]: 840 nM; concentration at 3 h [2, 4]: 500 nM
Clc1cccc(CNc2ncc3cc(-c4ncnc5[nH]ncc45)ccc3n2)c1 [Example 11, (3-Chlorobenzyl)-[6-(1H-pyrazolo[3,4-d]pyrimidin-4-yl)-quinazolin-2-yl]-amine]	145	–
C[C@@H](Nc1ncc2ccc(-c3ncnc4[nH]ncc34)cc2n1)c1ccccc1 [Example 12, ((R)-1-Phenyl-ethyl)-[7-(1H-pyrazolo[3,4-d]pyrimidin-4-yl)-quinazolin-2-yl]-amine]	> 3000	–
C[C@@H](Nc1ncc2cc(-c3ccnc4[nH]ncc34)ccc2n1)c1ccccc1 [Example 13, ((R)-1-Phenyl-ethyl)-[6-(1H-pyrazolo[3,4-b]pyridin-4-yl)-quinazolin-2-yl]-amine]	43	–
C[C@@H](Nc1ncc2cc(-c3ncnc4[nH]ccc34)ccc2n1)c1ccccc1 [Example 14, ((R)-1-Phenyl-ethyl)-[6-(7H-pyrrolo[2,3-d]pyrimidin-4-yl)-quinazolin-2-yl]-amine]	57	–
C[C@@H](Nc1ncc2cc(-c3ccnc4[nH]ccc34)ccc2n1)c1ccccc1 [Example 15, ((R)-1-Phenyl-ethyl)-[6-(1H-pyrrolo[2,3-b]pyridin-4-yl)-quinazolin-2-yl]-amine]	97	–
CN(C)CCN(Cc1ccccc1)c1ncc2cc(-c3ncnc4[nH]ncc34)ccc2n1 [Example 16, N-Benzyl-N′,N′-dimethyl-N-[6-(1H-pyrazolo[3,4-d]pyrimidin-4-yl)-quinazolin-2-yl]-ethane-1,2-diamine]	106	–
c1ccc(CN(C[C@@H]2COCCN2)c2ncc3cc(-c4ncnc5[nH]ncc45)ccc3n2)cc1 [Example 17, Benzyl-(R)-1-morpholin-3-ylmethyl-[6-(1H-pyrazolo[3,4-d]pyrimidin-4-yl)-quinazolin-2-yl]-amine]	110	–
c1ccc(CN(C[C@H]2COCCN2)c2ncc3cc(-c4ncnc5[nH]ncc45)ccc3n2)cc1 [Example 18, Benzyl-(S)-1-morpholin-3-ylmethyl-[6-(1H-pyrazolo[3,4-d]pyrimidin-4-yl)-quinazolin-2-yl]-amine]	25	–
C[C@@H](Nc1ncc2cc(-c3ncnc4[nH]cnc34)ccc2n1)c1ccccc1 [Example 20, ((R)-1-Phenyl-ethyl)-[6-(9H-purin-6-yl)-quinazolin-2-yl]-amine]	167	–
c1ccc(CNc2ncc3cc(-c4ncnc5[nH]ncc45)ccc3n2)cc1 [Example 21, Benzyl-[6-(1H-pyrazolo[3,4-d]pyrimidin-4-yl)-quinazolin-2-yl]-amine]	71	–
Cc1n[nH]c2ncnc(-c3ccc4nc(N[C@H](C)c5ccccc5)ncc4c3)c12 [Example 22, [6-(3-Methyl-1H-pyrazolo[3,4-d]pyrimidin-4-yl)-quinazolin-2-yl]-((R)-1-phenyl-ethyl)-amine]	131	–
COc1cccc(CNc2ncc3cc(-c4ncnc5[nH]ncc45)ccc3n2)c1 [Example 23, (3-Methoxy-benzyl)-[6-(1H-pyrazolo[3,4-d]pyrimidin-4-yl)-quinazolin-2-yl]-amine]	118	–
Fc1ccccc1CNc1ncc2cc(-c3ncnc4[nH]ncc34)ccc2n1 [Example 24, (2-Fluoro-benzyl)-[6-(1H-pyrazolo[3,4-d]pyrimidin-4-yl)-quinazolin-2-yl]-amine]	204	–
